# According to patent publication US20140127202A1, “ANTITUMOUR COMBINATIONS CONTAINING A VEGF INHIBITING AGENT AND IRINOTECAN” (Aventis Pharma S.A., priority 2007, published 2014):
# How the values were obtained:
# [1] = Antitumor activity and toxicity in mice grafted subcutaneously with HCT116 human tumor fragments; assay type: in vivo; conditions: mouse, in vivo, iv; irinotecan alone, i.v. twice a day on days 12, 15, 18; read-out: maximum tolerated dose, total injected dose
# Method: (§1) This effectiveness can be quantified, for example, by the log10 cell kill, which is determined according to the following equation:
# (§2) log10 cell kill=T-C (days)/3.34×Td
# (§3) in which T-C represents the delay in growth of the cells, which is the average time, in days, for the tumors of the treated group (T) and the tumors of the control group (C) to have reached a predetermined value (1 g for example), and Td represents the time, in days, necessary for the volume of the tumor to double in the control animals [T. H. Corbett et al., Cancer, 40, 2660.2680 (1977); F. M. Schabel et al., Cancer Drug Development, Part B, Methods in Cancer Research, 17, 3-51, New York, Academic Press Inc. (1979)]. A product is considered to be active if log10 cell kill is greater than or equal to 0.7. A product is considered to be very active if log10 cell kill is greater than 2.8.
# (§4) The combination, used at its own maximum tolerated dose, in which each of the constituents is present at a dose generally less than or equal to its maximum tolerated dose, will show therapeutic synergy when the log10 cell kill is greater than the value of the log10 cell kill of the best constituent when it is administered alone, and in particular has a superiority of at least one log cell kill.
# (§5) The effectiveness of the combinations on solid tumors can be determined experimentally in the following way:
# (§6) The animals subjected to the experiment, generally mice, are grafted bilaterally, subcutaneously, with 30 to 60 mg of an HCT116 human tumor fragment (Brattain, M. G., Fine, W. D., Khaled, F. M., Thompson, J. and Brattain, D. E., Heterogeneity of malignant cells from a human colonic carcinoma. Cancer Res., 1981, 41, 1751-1756) on day 0. The animals bearing the tumors are randomized before being subjected to the various treatments and controls. In the case of treatment of tumors of the present invention, the tumors were allowed to develop to a size of between 48 and 294 mg, which made it possible to have a median tumor per group of between 129 and 162 mg. […] Animals bearing tumors were also subjected to the same treatments with the excipient alone in order to be able to dissociate the toxic effect of the excipient from the actual effect of the chemotherapy on the tumor. The chemotherapy was begun on day 12 after the tumor graft. The VEGF Trap injections were given subcutaneously simultaneously with the irinotecan injections, which themselves were given intravenously, according to a daily double injection. These injections were carried out on days 12, 15 and 18 after implantation of the tumor. The various groups of animals are weighed three to four times per week until the maximum weight loss is reached, and then the groups are weighed at least once a week until the end of the trial.
# (§7) The tumors are measured two or three times a week until the tumor reaches approximately 2 g or until the death of the animal if the latter occurs before the tumor reaches 2 g. The animals are autopsied at the time of sacrifice.
# (§8) The antitumor activity is determined according to the various parameters recorded.
# (§9) Vials of 1 cm^3 containing 25 mg of VEGF Trap which are diluted in a buffer of 5 mM phosphate, 5 mM sodium citrate, 100 mM sodium chloride, polysorbate 20 and 20% sucrose are prepared according to the usual technique, for subcutaneous administration. The administration volume per mouse is 0.1 ml. The VEGF Trap is administered once a day, on days 12, 15 and 18 after implantation of the tumor.
# (§10) 0.3 ml per mouse is prepared, according to the usual technique, for intravenous administration, from a commercially available solution at 20 mg/ml of irinotecan to be diluted with 5% dextrose in water.
# (§11) These solutions are administered simultaneously, after a suitable dilution.
# (§12) The treatment with irinotecan is repeated twice a day, with a 4-hour interval, on days 12, 15 and 18 after implantation of the tumor.
# (§13) Tumor doubling time=3.2 days.
# (§14) Abbreviations used: (T-C) delay in growth of the tumor, Ick=log cell kill.
# HCT116 human tumor = assay: as above; assay type: in vivo
# Method: as §1, §2, §3, §4, §5, §6, §7, §8, §9, §10, §11, §12, §13, §14
# VEGF-B = VEGF-B (Homo sapiens, UniProt P49765); conditions: cited from earlier work
# VEGF-B, sequence (P49765 22-207, species assumed): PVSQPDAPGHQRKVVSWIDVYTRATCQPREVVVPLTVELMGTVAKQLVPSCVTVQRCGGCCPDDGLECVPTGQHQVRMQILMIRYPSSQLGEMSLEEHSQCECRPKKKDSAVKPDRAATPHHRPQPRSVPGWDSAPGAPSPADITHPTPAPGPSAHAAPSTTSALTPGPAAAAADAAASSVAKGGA
# [2] = molecular target: PIGF (placental growth factor) (Homo sapiens, UniProt P49763); conditions: cited from earlier work
# PIGF (placental growth factor), sequence (P49763 19-221): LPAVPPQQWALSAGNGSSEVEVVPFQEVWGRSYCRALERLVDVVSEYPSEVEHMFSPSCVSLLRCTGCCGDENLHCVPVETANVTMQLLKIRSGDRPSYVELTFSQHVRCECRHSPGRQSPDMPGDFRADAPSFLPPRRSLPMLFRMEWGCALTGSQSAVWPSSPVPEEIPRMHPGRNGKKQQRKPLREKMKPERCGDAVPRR
# VEGF-A = molecular target: T1, VEGF-A (Homo sapiens, UniProt P15692); conditions: in comparison with Avastin (bevacizumab); cited from earlier work
# T1 sequence (P15692 207-395 limits assumed): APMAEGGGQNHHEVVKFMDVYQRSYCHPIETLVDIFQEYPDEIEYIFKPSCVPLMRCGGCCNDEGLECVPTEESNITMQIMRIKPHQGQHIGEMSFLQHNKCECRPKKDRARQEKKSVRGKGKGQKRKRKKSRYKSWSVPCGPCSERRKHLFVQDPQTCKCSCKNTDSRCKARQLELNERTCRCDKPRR
# [3] = CPT-11 alone, 12.5 mg/kg per injection i.v., 2x/d days 12, 15, 18, total 75.0 mg/kg, group 9
# [4] = CPT-11 alone, 20.2 mg/kg per injection i.v., 2x/d days 12, 15, 18, total 121.2 mg/kg, group 8
# [5] = CPT-11 alone, 32.5 mg/kg per injection i.v., 2x/d days 12, 15, 18, total 195.0 mg/kg, group 7
# [6] = VEGF Trap alone, 2.5 mg/kg s.c. days 12, 15, 18, total 7.5 mg/kg, group 5
# [7] = VEGF Trap alone, 10.0 mg/kg s.c. days 12, 15, 18, total 30.0 mg/kg, group 4
# [8] = VEGF Trap alone, 25.0 mg/kg s.c. days 12, 15, 18, total 75.0 mg/kg, group 3
# [9] = VEGF Trap alone, 40.0 mg/kg s.c. days 12, 15, 18, total 120.0 mg/kg, group 2
compound,measurement,setting,value
"CCc1c2c(nc3ccc(OC(=O)N4CCC(N5CCCCC5)CC4)cc13)-c1cc3c(c(=O)n1C2)COC(=O)[C@]3(O)CC [CPT-11, irinotecan]",MTD,[1],75 mg/kg
same,Average time for the tumor to reach 750 mg,HCT116 human tumor; [3],37.6 days
same,Comments (activity),HCT116 human tumor; [3],active
same,Comments (dose level),HCT116 human tumor; [3],HNTD
same,"Death due to the product, with day of death",HCT116 human tumor; [3],0/8
same,Log cell kill,HCT116 human tumor; [3],1.8
same,Survivors without tumor at day 144,HCT116 human tumor; [3],0/8
same,T-C,HCT116 human tumor; [3],19.1 days
same,Weight loss of the mouse (date of low-point),"HCT116 human tumor; CPT-11 alone, 12.5 mg/kg per injection i.v., 2x/d days 12, 15, 18, total 75.0 mg/kg, group 9, low-point day 21",−15.9%
same,Comments,HCT116 human tumor; [4],Toxic
same,"Death due to the product, with day of death",HCT116 human tumor; [4],0/8
same,Comments,"HCT116 human tumor; CPT-11 alone, 20.2 mg/kg per injection i.v., 2x/d days 12, 15, 18, total 121.2 mg/kg, group 8, listed as irinotecan",Toxicity was observed
same,Weight loss of the mouse (date of low-point),"HCT116 human tumor; CPT-11 alone, 20.2 mg/kg per injection i.v., 2x/d days 12, 15, 18, total 121.2 mg/kg, group 8, low-point day 19",−21.9%
same,Weight loss of the mouse (date of low-point),"HCT116 human tumor; CPT-11 alone, 20.2 mg/kg per injection i.v., 2x/d days 12, 15, 18, total 121.2 mg/kg, group 8, low-point day 19, listed as irinotecan",greater than 20%
same,Comments,HCT116 human tumor; [5],Toxic
same,"Death due to the product, with day of death",HCT116 human tumor; [5],0/7
same,Comments,"HCT116 human tumor; CPT-11 alone, 32.5 mg/kg per injection i.v., 2x/d days 12, 15, 18, total 195.0 mg/kg, group 7, listed as irinotecan",Toxicity was observed
same,Weight loss of the mouse (date of low-point),"HCT116 human tumor; CPT-11 alone, 32.5 mg/kg per injection i.v., 2x/d days 12, 15, 18, total 195.0 mg/kg, group 7, low-point day 19",−23.1%
same,Weight loss of the mouse (date of low-point),"HCT116 human tumor; CPT-11 alone, 32.5 mg/kg per injection i.v., 2x/d days 12, 15, 18, total 195.0 mg/kg, group 7, low-point day 19, listed as irinotecan",greater than 20%
same,"Death due to the product, with day of death","HCT116 human tumor; CPT-11 alone, 52.4 mg/kg per injection i.v., 2x/d (4 h apart) days 12, 15, 18, total 314.4 mg/kg, group 6, day of death 23",1/8 (23)
same,"Death due to the product, with day of death","HCT116 human tumor; CPT-11 alone, 52.4 mg/kg per injection i.v., 2x/d (4 h apart) days 12, 15, 18, total 314.4 mg/kg, group 6, day of death 23, listed as irinotecan",a death
same,Comments,"HCT116 human tumor; CPT-11 alone, 52.4 mg/kg per injection i.v., 2x/d days 12, 15, 18, total 314.4 mg/kg, group 6",Toxic
same,Comments,"HCT116 human tumor; CPT-11 alone, 52.4 mg/kg per injection i.v., 2x/d days 12, 15, 18, total 314.4 mg/kg, group 6, listed as irinotecan",Toxicity was observed
same,Weight loss of the mouse (date of low-point),"HCT116 human tumor; CPT-11 alone, 52.4 mg/kg per injection i.v., 2x/d days 12, 15, 18, total 314.4 mg/kg, group 6, low-point day 21",−27.0%
same,maximum tolerated dose,"HCT116 human tumor; irinotecan alone, i.v. twice a day on days 12, 15, 18",12.5 mg/kg/inj
"VEGF Trap: fusion protein: D2 Ig domain of VEGFR1 fused to D3 Ig domain of VEGFR2, fused to the Fc domain of IgG1",binding to VEGF-B (selectivity profile),VEGF-B,also binds
same,Average time for the tumor to reach 750 mg,HCT116 human tumor; [6],20.2 days
same,Comments (activity),HCT116 human tumor; [6],inactive
same,"Death due to the product, with day of death",HCT116 human tumor; [6],0/8
same,Log cell kill,HCT116 human tumor; [6],0.2
same,Survivors without tumor at day 144,HCT116 human tumor; [6],0/8
same,T-C,HCT116 human tumor; [6],1.7 days
same,Weight loss of the mouse (date of low-point),"HCT116 human tumor; VEGF Trap alone, 2.5 mg/kg s.c. days 12, 15, 18, total 7.5 mg/kg, group 5, low-point day 19",−8.3 (19) %
same,Average time for the tumor to reach 750 mg,HCT116 human tumor; [7],32.0 days
same,Comments (activity),HCT116 human tumor; [7],active
same,"Death due to the product, with day of death",HCT116 human tumor; [7],0/8
same,Log cell kill,HCT116 human tumor; [7],1.3
same,Survivors without tumor at day 144,HCT116 human tumor; [7],1/8
same,T-C,HCT116 human tumor; [7],13.5 days
same,Weight loss of the mouse (date of low-point),"HCT116 human tumor; VEGF Trap alone, 10.0 mg/kg s.c. days 12, 15, 18, total 30.0 mg/kg, group 4, low-point day 19",−5.0 (19) %
same,Average time for the tumor to reach 750 mg,HCT116 human tumor; [8],36.8 days
same,Comments (activity),HCT116 human tumor; [8],active
same,"Death due to the product, with day of death",HCT116 human tumor; [8],0/8
same,Log cell kill,HCT116 human tumor; [8],1.7
same,Survivors without tumor at day 144,HCT116 human tumor; [8],0/8
same,T-C,HCT116 human tumor; [8],18.3 days
same,Weight loss of the mouse (date of low-point),"HCT116 human tumor; VEGF Trap alone, 25.0 mg/kg s.c. days 12, 15, 18, total 75.0 mg/kg, group 3, low-point day 13",−2.2 (13) %
same,Average time for the tumor to reach 750 mg,HCT116 human tumor; [9],36.8 days
same,"Death due to the product, with day of death",HCT116 human tumor; [9],0/8
same,Log cell kill,HCT116 human tumor; [9],1.7
same,Survivors without tumor at day 144,HCT116 human tumor; [9],0/8
same,T-C,HCT116 human tumor; [9],18.3 days
same,Comments (activity),"HCT116 human tumor; VEGF Trap alone, 40.0 mg/kg s.c. days 12, 15, 18, total 120.0 mg/kg, group 2 (HDT)",active
same,Weight loss of the mouse (date of low-point),"HCT116 human tumor; VEGF Trap alone, 40.0 mg/kg s.c. days 12, 15, 18, total 120.0 mg/kg, group 2, low-point day 13",−3.1 (13) %
same,tolerability,"HCT116 human tumor; VEGF Trap alone, all the dosages tested (2.5 to 40 mg/kg/administration s.c.)",well-tolerated
same,binding to PIGF (selectivity profile),[2],also binds
same,affinity for VEGF-A compared with Avastin,VEGF-A,much higher affinity
